Source: US5834452A, “1- or 6-hydroxylated steroids” (Roussel Uclaf, priority 1996, dated 1998)

Legend:
[1] = target: T1, Human glucocorticoid receptor (HGR) (Homo sapiens, UniProt P04150); experiment: Relative bond affinity (RBA), recombinant human glucocorticoid receptor, charcoal dextran technique; type: binding; settings: 24 h at 0° C.; Dexamethasone = 100
T1 construct: made in house; host or cells: SF9 insect cells (baculovirus), lysate supernatant
T1 sequence (P04150 1-777): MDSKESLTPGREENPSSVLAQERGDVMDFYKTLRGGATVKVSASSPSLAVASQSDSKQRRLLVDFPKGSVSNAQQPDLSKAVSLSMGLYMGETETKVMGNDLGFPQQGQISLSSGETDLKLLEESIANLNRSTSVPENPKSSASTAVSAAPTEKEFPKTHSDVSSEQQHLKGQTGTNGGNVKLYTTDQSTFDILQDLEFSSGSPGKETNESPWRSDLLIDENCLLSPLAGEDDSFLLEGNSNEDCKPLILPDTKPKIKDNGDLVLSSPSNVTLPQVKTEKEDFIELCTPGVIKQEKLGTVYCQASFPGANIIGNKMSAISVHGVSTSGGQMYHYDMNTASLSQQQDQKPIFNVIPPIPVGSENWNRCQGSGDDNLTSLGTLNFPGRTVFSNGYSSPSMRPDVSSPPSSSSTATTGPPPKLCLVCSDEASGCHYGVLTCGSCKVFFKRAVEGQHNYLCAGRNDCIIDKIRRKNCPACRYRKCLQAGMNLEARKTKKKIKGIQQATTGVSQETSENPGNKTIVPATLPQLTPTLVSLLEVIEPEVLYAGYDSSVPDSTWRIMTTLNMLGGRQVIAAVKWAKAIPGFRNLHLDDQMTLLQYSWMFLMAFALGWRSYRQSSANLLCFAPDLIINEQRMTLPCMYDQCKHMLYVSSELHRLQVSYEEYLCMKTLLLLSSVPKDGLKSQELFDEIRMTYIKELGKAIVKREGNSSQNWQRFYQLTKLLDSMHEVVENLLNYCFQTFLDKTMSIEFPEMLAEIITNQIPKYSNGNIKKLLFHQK
Source text: (§1) The human recombinant receptor (HGR, HPR, HAR, HMR, HER) was used.
Human glucocorticoid receptor (HGR):
A supernatant of SF9 cells containing the recombinant human glucocorticoid receptor was obtained by the process described above for the progestogen receptor using the cDNA fragment described by Hollenberg et al (Nature, (1985), Vol. 318 No. 19/26 635) containing the region coding for the human glucocorticoid receptor. The cells obtained were lysed in the lysis buffer (2).
The supernatant was incubated at 0° C. for 24 hours with a constant concentration (T) of tritiated 11β, 17β-dihydroxy-6,21-dimethyl-[…] the presence of increasing concentrations of either unlabelled dexamethasone (0-1000×10^-9 M), or the unlabelled product to be tested (1 to 25000×10^-9 M). The concentration of bound tritiated 11β, 17β-dihydroxy-6,21-dimethyl-Δ^1,4,6 -pregnatriene-20-yn-3-one (B) was then measured in each incubate using the charcoal dextran adsorption technique. […]
(§2) The following two curves were drawn: the percentage of bound tritiated hormone B/BO as a function of the logarithm of the concentration of unlabelled reference hormone or as a function of the logarithm of the concentration of unlabelled test product. The straight line of the following equation was determined: […]
(§3) The relative bond affinity (RBA) of the test product was determined by the equation: […]

[2] = target: T2, Human mineralocorticoid receptor (HMR) (Homo sapiens, UniProt P08235); experiment: Relative bond affinity (RBA), recombinant human mineralocorticoid receptor, charcoal dextran technique; type: binding; settings: 24 h at 0° C.; Aldosterone = 100
T2 construct: made in house; host or cells: SF9 insect cells (baculovirus), lysate supernatant
T2 sequence (P08235 1-984): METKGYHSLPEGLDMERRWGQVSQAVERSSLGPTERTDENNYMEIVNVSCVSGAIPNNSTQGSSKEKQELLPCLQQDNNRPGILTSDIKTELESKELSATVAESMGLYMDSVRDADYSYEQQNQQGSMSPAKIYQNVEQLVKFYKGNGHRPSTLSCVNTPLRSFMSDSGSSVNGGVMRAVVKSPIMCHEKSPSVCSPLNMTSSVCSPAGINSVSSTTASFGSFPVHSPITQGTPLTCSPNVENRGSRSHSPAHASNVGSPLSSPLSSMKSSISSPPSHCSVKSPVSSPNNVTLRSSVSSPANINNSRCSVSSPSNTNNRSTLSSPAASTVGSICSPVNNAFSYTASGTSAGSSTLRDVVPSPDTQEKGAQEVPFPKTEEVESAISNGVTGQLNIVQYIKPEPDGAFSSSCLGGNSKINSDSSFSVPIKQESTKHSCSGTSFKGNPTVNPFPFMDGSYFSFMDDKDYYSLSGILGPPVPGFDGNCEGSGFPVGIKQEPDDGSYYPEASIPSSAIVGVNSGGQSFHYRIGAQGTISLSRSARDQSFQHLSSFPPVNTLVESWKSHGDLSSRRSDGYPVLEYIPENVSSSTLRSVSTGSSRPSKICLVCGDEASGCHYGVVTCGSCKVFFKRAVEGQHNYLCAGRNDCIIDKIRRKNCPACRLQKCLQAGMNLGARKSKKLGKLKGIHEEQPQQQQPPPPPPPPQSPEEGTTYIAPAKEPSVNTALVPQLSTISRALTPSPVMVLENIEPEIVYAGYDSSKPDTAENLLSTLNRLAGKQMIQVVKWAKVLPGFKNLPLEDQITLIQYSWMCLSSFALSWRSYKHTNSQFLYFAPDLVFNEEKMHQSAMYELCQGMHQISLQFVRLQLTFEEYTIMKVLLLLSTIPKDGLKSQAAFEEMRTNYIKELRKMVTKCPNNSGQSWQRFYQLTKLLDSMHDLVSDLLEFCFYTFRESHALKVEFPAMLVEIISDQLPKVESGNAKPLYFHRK
Source text: as §1
Human mineralocorticoid receptor (HMR):
A supernatant of SF9 cells containing the recombinant human mineralocorticoid receptor was obtained according to the process described above for the progestogen receptor using the cDNA fragment described by Baulieu et al (Proc. Natl. Acad. Sci., (1991), Vol. 88, p. 10681-10685) containing the region coding for the human mineralocorticoid receptor. The cells obtained were lysed in the lysis buffer (4). The supernatant was incubated at 0° C. for 24 hours with a constant concentration (T) of tritiated aldosterone in the presence of increasing concentrations of either unlabelled aldosterone (0 to 1000×10^-9 M), or the unlabelled product to be tested (1 to 25000×10^-9 M). The concentration of bound tritiated aldosterone (B) was then measured in each incubate using the charcoal dextran adsorption technique.
Calculation of the relative bond affinity (RBA).
as §2, §3

[3] = tested on: endometrial proliferation (uterine lace); experiment: Progestomimetic activity: endometrial transformation in the rabbit (Clauberg-McPhail test); type: in vivo; parameters: key to Average uterine lace (McPhail Index): McPhail scale 0–4 with 0.5 steps (endometrial proliferation); settings: for Progestomimetic activity: rabbit

RBA, Human glucocorticoid receptor [1] | RBA, Human mineralocorticoid receptor [2] | Structure (SMILES) | Progestomimetic activity ([3]; 3 μg/kg percutaneously) | Average uterine lace (McPhail Index) ([3]; rabbit, 0,003 mg/kg, s/c, day 8 to day 11) | Progestomimetic activity ([3]; 3 and 10 μg/kg orally)
no or negligible RBA's | no or negligible RBA's | C[C@H](O)C(=O)[C@@]1(C)CC[C@H]2[C@@H]3C[C@@H](O)C4=CC(=O)CCC4=C3CC[C@@]21C [Product B, [6β, 17β-(S)]-6-hydroxy-17-(2-hydroxy-1-oxopropyl)-17-methyl-Δ^4,9-estradiene-3-one] |  |  | 
 |  | C[C@H](O)C(=O)[C@@]1(C)CC[C@H]2[C@@H]3CCC4=CC(=O)CCC4=C3CC[C@@]21C [Trimegestone, [17β-(S)]-17-(2-hydroxy-1-oxopropyl)-17-methyl-Δ^4,9-estradiene-3-one, reference compound] | strong activity | 3,8 | strong activity
